These results are taken from PubChem BioAssay AID2305 (GlaxoSmithKline (GSK), 2010).

Each structure is given as a SMILES string. Several values for one entry are separate records, joined by “and”; a condition that tells them apart may be missing. Equal values may be shown once.

The test concerns P. falciparum 3D7 growth, pLDH absorbance. Description: blood-stage malaria parasite growth potency – strain 3D7, dose response (AID 2305).
Broadly, the IC50 is the concentration at which inhibition is half-maximal. A lower IC50 goes with greater potency. As to `CC(C)NC(=O)c1cccc(-c2cccc(OCCN3CCSCC3c3ccccc3)c2)c1` (stereo not given), the IC50 was 1010 nM. `Cc1sc(C)c(C(F)(F)F)c1CNCCCNc1cc(=O)c2ccccc2[nH]1`: the IC50 stood at 1100 nM. With `CN(C)c1ccc(-c2ccc(C(=O)NC3CCN(Cc4ccc(F)cc4)CC3)s2)cc1` the figure was 1050 nM; with `Cc1cccc2[nH]c(-c3cccc(-c4ccc(NC(=O)C(=O)c5cccn5C)cc4)c3)nc12`, 380 nM.

The compound `COc1ccc(C2CCN(CCCCNC(=O)c3ccc(NC(=O)c4ccc(Cl)cc4)cc3)CC2)cc1Cl` registered an IC50 of 840 nM. With `COc1ccc2nccc([C@@H](O)CN3CCC(NC(=O)/C=C/c4cccc(-c5ccccc5)c4)CC3)c2c1` the figure was 250 nM; with `COc1ccc(-c2csc3nc(C)nc(Cl)c23)cc1OC`, 360 nM; with `COc1cccc(C(=O)NCCc2cccc(Cl)c2)c1OCc1ccccc1`, 1260 nM. To `O=C(NCCCCN1CCC(c2ccc3ccccc3c2)CC1)c1ccc(NC(=O)c2ccc(Cl)cc2)cc1` belongs 230 nM; to `O=C(Nc1ccccc1)N1CCOC(CCN2CCC(F)(F)CC2)(c2ccc(Cl)c(Cl)c2)C1` (stereo not given), 190 nM; to `CN1CCc2ccc(NC(=O)Nc3ccc(-c4ccccc4)cc3)cc2C1`, 510 nM.

As for `CCOC(=O)c1c(-c2ccccc2)c(C(=O)OCC)n2ccccc12`, the IC50 was 610 nM. With `Cc1c(C)c2c(c(C)c1O)CC[C@@](C)(C(=O)N1CCC(CCN3CCC(c4c[nH]c5ccccc45)CC3)CC1)O2` the figure was 670 nM; with `N#Cc1ccc2c(c1)CN(C1CCC(NC(=O)c3cc(-c4ccc(Cl)cc4)cs3)CC1)CCC2` (stereo not given), 960 nM; with `Cc1ccc(-c2cc(C(=O)Nc3ccc(S(=O)(=O)N4CCOCC4)cc3)[nH]n2)c(O)c1C`, 920 nM. With `Cc1nc(N)nc(N)c1OCc1cccc2c1ccc1ccccc12` the figure was 100 nM.

Take `O=[N+]([O-])c1cccc(CNCC2CCN(Cc3ccc(O)cc3)CC2)c1`: the IC50 came out at 670 nM. With `O=C(/C=C/c1ccc(Cl)c(Cl)c1)NCCCCCN1CCC(C(=O)Nc2ccc(Cl)c(Cl)c2)CC1` the figure was 640 nM; with `O=C(Nc1ccc(-c2csc(-c3nc4ccccc4[nH]3)c2)cc1)Nc1ccc(Cl)c(Cl)c1`, 400 nM.

For the compound `O=C(Nc1ccc(OC(F)(F)F)cc1)NC1CCN(c2ccnc3ccccc23)CC1`, the IC50 was 300 nM. To `Clc1ccc(-c2cnc3ccc(NCCc4cccnc4)nn23)cc1` belongs 860 nM; to `CC(C)(C)c1cc(C(=O)N2CCN(c3cnccn3)CC2)n(Cc2ccccc2)n1`, 1140 nM.

Compound `CCOC(=O)c1cn(CC)c2cc(O[C@H]3CCN(C(=O)OC(C)(C)C)C3)ccc2c1=O` returned a half-inhibitory concentration (IC50) of 550 nM.

Regarding `CNC(=O)c1ccccc1Nc1nc(Nc2cccc(CS(C)(=O)=O)c2)ncc1C`, the IC50 is 530 nM. To `CCCCCCc1cc(O)c2c3c(c(=O)oc2c1)CCN(C)C3` belongs 670 nM. To `O=C(Nc1ccc(Cn2ncc(N3CCCNCC3)c(Cl)c2=O)cc1)Nc1ccc(-c2ccccc2)cc1` belongs 820 nM and 800 nM; to `Cc1c(C(=O)[C@@H]2C[C@H]2CN2CCC(N3CCCCC3)CC2)sc2ccccc12`, 1020 nM; to `CC(=O)c1ccc(NC(=O)CSc2nc(-c3ccccc3Cl)ns2)cc1`, 1130 nM. To `Cc1cc(N2CCCC2)nc(Nc2ccc(NC(=O)c3ccccc3C)cc2)n1` belongs 720 nM; to `N#Cc1ccc2c(c1)CCN(CCC1CCC(NC(=O)/C=C/c3nc4ccccc4s3)CC1)CC2` (stereo not given), 830 nM; to `Cc1[nH]c(C)c(-c2ccc(S(=O)(=O)c3ccc(Cl)cc3)cc2)c(=O)c1Cl`, 140 nM.

`Nc1c2c(nc3ccc(NC(=O)c4ccccc4)cc13)CCCC2` yielded an IC50 of 610 nM. With `COc1ccc(CN2CCC(CNCc3cccc(-c4ccccc4)c3)CC2)cc1` the figure was 240 nM; with `Cc1cc(Nc2nc(Nc3cccc(Cl)c3)nc3ccccc23)n[nH]1`, 290 nM.

As for `O=C(Nc1ccc(Cl)c(Cl)c1)Nc1ccc(F)c([N+](=O)[O-])c1`, the IC50 was 700 nM.
